Results as given in patent US12508328B2, “Bio-activated reporters to visualize, in real time, specific gene therapy products” (Northwestern University, priority 2019, dated 2025).
Read-outs that look alike come from different tables or passages of the source.

Experiments:
[1] = Relaxivity (1.4 T) in MOPS and MOPS/CO3^2−; format: physicochemical; conditions: for Δr1 relative to the cleaved control product 11: intramolecular series 10a-d, 37° C.
Description: While measurements of q indicate how well an agent can restrict water access to the GdIII center, the most important property for a bio-activated contrast agent is the change in relaxivity upon enzymatic cleavage (r1). To evaluate the signal change in the presence of CO32−, relaxivities of the intermolecular activated agents were measured in two different buffer conditions, the non-coordinating buffer MOPS and MOPS/CO32−.
T1 relaxation times were obtained for 5a-c (FIG. 13), and complexes 10a-d (FIG. 14), and 11 at 37° C. at 60 MHz (1.4 T) on a Bruker mq60 minispec spectrometer (Billerica, MA). Three 1 mM solutions of each complex were prepared in four different buffer conditions 1) 10 mm 3-(N-morpholino)propanesulfonic acid (MOPS), 100 mm NaCl, pH 7.4, 2) 10 mm MOPS, 24 mm NaHCO3, 100 mm NaCl, pH 7.4, 3) Dulbecco's Phosphate Buffer (DPBS) pH 7.3 Life Technologies, and 4) b-galactosidase enzyme assay buffer, 200 mm sodium phosphate, 100 mm bmercaptoethanol, 2 mm MgCl2, pH 7.3 (FIG. 15). Three sets of five serial dilutions (about 1 mm, 0.5 mm, 0.25 mm, 0.125 mm and 0.0625 mm) were prepared for each complex. T1 relaxation rates were measured using an inversion recovery pule sequence (t1_ir_mb) with a 10 ms first pulse separation, recycle delay and final pulse separation ≥5 T1. T1 relaxation rates were plotted as a function of GdIII concentrations as determined by ICP-MS, r1/r2 was obtained from linear fit of concentration vs. T1 as described in Equation (1).

[2] = Complex stability measured by relaxivity (T1); format: physicochemical; conditions: for change in T1 over time (stability): 1 mM in enzyme buffer pH 7.3, over 140 hours; for change in T1 over time (stability) in cell culture media: over 140 hours
β-gal [3] = target: T1, β-gal (Escherichia coli, UniProt P00722); conditions: for T1 signal in the presence of β-gal compared with cleaved agent 11: 24 h incubation
Description: MR images were acquired on a Bruker Pharmscan 7 T imaging spectrometer fitted with shielded gradient coils at 25° C. Image analysis was carried out using Paravision 5.0 p13 software (Bruker, Billerica, MA, USA) with monoexponential curve-fitting of image intensities of selected regions of interest (ROIs) for each axial slice. […] Exact Gd(III) concentration was verified by ICP-MS. Either 10 μL of enzyme stock solution (50% enzyme assay buffer, 50% glycerol, at 521 U/mL β-gal) or 10 μL of a 50% enzyme assay buffer/50% glycerol solution (used as a control) were added to a 190 μL aliquot of each complex. After this addition, the final concentration of each complex was 475 μM, with 26.1 U/mL of β-gal. The solutions were incubated at 37° C. for 24 hours, then aliquoted to 5, ¾″ flame-sealed Pasteur pipets. The bottom sections of the flame-sealed pipets were then scored with a glass scribe, broken into small capillaries, and imaged using a RF RES 300 1H 089/023 quadrature transmit receive 23 mm volume coil (Bruker BioSpin, Billerica, MA, USA). T1 relaxation times were measured using a rapid-acquisition rapid-echo RARE-VTR T1-map pulse sequence with the following imaging parameters: TE (11.0 ms), TR (500.0 ms), field of view (FOV)=25×25 mm2, matrix size (MTX)=256×256, number of axial slices=5, slice thickness (SI)=1.0 mm, and averages (NEX)=3, and total scan time was 2:36:57. T2 values were measured using a multislice multiecho (MSME) T2-map pulse sequence, with static TR (5000 ms) and 32 fitted echoes in 11 ms intervals (11, 22, . . . , 352 ms). Imaging parameters were as follows: FOV=25×25 mm2, MTX=256×256, number of axial slices=4, SI=1.0 mm, NEX=3, and a total scan time=48 min. T1 images and times can be found in FIG. 14 and T2 maps and times can be found in FIG. 18.

[4] = Terbium(III) luminescence: determination of q; format: physicochemical; conditions: 10a′-d′, Horrock's equation; MOPS/CO3^2− buffer pH 7.4
Description: The q number in the absence and presence of CO32− was determined using TbIII analogues (5a′, 5b′, 5c′, and 11′). Given the similarities in chemistry amongst the lanthanides, TbIII luminescence is a convenient and established method for determining the coordination environment in corresponding GdIII chelates. The narrow […] emission at 543 nm and the relatively long lived 0.4 ms excited state lifetime for Tb(H2O)x facilitates accurate assessment of the inner-coordination sphere, differentiating between coordination of OH, OD, NH, and ND oscillators. 38 Luminescent decay curves were fit to the empirically derived Horrock's equation (Eq. 2). It was expected that the ortho position would have the lowest q in the presence of CO32−, creating a “dark” state with the lowest relaxivity.
The number of water molecules directly coordinated to the lanthanide center (q), was determined for each of the TbIII analogues 5a′-c′ (see Table 1), 10a′-d′ (Table 2), and 11′ in MilliQ water and MOPS/carbonate buffer (10 mm MOPS, 24 mm NaHCO3, pH 7.4).
The monoexponential fluorescence decay of an ≈1 mm solution of each complex was determined using a Hitachi F4500 fluorometer (Schaumburg, IL). An excitation wavelength of 308 nm and an emission wavelength of […] were used, and 25 scans were acquired and averaged for each solution. The averaged data was fit with a monoexponential decay function, and the time constant (t) for each solution was determined in triplicate. The fluorescence decay curves of the complexes were measured in both H2O and D2O, and in both buffer and deuterated buffer, obtained by lyophilizing and re-suspending the buffer in D2O three times (FIG. 17A-E). The q values were calculated using the empirically derived Horrock's equation for Tb(III) (Eq. 2): […]

β-gal enzyme (lacZ) = conditions: for MR signal enhancement in lacZ-expressing mice, 1 h post injection: 9.4 T T1 weighted FLASH
Description: In vivo MR Imaging (9.4 T) Hemizygous transgenic mice (n=2) constitutively expressing the lacZ gene that encodes the β-gal enzyme (strain ROSA26-lacZ) were purchased from The Jackson Laboratory (Bar Harbor, ME). A non-transgenic littermate was used as a control. […] Mice were imaged with MRI at baseline, and 1, 4, and 24 hours post injection.
MRI was performed on a 9.4T Bruker Biospec MRI system with a 30 cm bore, a 12 cm gradient insert, and an Autopac automated sample positioning system (Bruker Biospin Inc, Billerica, MA). Animals were anesthetized in an induction chamber with 3% isoflurane and transferred to a dedicated imaging bed with isoflurane delivered via nosecone at 1-2%. Respiratory signals were monitored using an MR-compatible physiologic monitoring system (SA Instruments, Stonybrook, NY) and a warm water circulating system was used to maintain body temperature. Animals were placed in the prone position and a quadrature radiofrequency coil with inner diameter 40 mm was mounted on the bed. Mice were imaged using a FLASH gradient echo sequence using the following parameters: TR/TE/α=100 ms/2.2 ms/45°, MTX=192×192, FOV 4×4 cm, 9 slices of 1 mm thick, 0.3 mm slice gap, and 1 signal average.

β-gal [5] = target: T1, β-gal; conditions: dark to bright
Description: The acetate arm is attached to an amine present in the linker between the macrocycle and the galactopyranose substrate.

[6] = cited from earlier work
[7] = cited from earlier work; for link to nephrogenic systemic fibrosis (NSF): clinical use
[8] = IP 200 microliters of 40 mM, 9.4 T
[9] = intravenous, two-compartment open-model

T1 sequence (P00722 2-1024): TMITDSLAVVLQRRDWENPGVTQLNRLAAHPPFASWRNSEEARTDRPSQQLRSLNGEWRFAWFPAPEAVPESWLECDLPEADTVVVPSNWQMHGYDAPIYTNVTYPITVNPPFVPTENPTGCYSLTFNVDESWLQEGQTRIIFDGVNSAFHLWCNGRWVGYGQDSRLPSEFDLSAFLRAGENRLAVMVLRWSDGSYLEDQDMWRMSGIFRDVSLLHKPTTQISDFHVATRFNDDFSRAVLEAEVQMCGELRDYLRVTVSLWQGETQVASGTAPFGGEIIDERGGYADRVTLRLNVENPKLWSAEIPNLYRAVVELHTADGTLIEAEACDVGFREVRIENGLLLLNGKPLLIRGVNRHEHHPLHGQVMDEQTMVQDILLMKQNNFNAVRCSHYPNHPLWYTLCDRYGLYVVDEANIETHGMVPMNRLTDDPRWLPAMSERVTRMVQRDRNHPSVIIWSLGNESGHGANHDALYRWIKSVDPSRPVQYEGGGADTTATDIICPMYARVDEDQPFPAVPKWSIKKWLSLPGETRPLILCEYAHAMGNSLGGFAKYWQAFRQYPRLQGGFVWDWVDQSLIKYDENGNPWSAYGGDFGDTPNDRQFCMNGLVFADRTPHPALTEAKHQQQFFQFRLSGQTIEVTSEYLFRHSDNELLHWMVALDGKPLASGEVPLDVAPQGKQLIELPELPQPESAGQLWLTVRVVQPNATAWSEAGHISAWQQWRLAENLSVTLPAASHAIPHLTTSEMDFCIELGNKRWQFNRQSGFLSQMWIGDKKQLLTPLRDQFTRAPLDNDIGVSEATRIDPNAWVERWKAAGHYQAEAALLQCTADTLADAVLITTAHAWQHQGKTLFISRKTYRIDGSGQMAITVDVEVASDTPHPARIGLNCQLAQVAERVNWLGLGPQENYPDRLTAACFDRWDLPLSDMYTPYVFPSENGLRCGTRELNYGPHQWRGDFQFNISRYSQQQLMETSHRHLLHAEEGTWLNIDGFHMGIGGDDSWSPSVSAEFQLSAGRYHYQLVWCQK

In the case of `CCOC(=O)CNc1cc(COC(=O)NCCN2CCN(CC(=O)[O-])CCN(CC(=O)[O-])CCN(CC(=O)[O-])CC2)ccc1O[C@@H]1O[C@H](CO)[C@H](O)[C@H](O)[C@H]1O.[Gd+3]` [10a, Gadolinium(III)-1-(4-(2-(1-(4,7,10-triscarboxymethyl-(1,4,7,10tetraazacyclododecyl)))ethylcarbamoyloxymethyl)-2-((2-ethoxy-2-oxoethyl)amino)phenyl)-β-D-galactopyranose], the “relaxivity within the intramolecular series” value ([1]; 10a-d) was “highest relativity of the series”, the “Δr1 relative to the cleaved control product 11” value [1] was “negative” and the “change in T1 over time (stability)” value [2] was “No significant change in T1”.

For `CCOC(=O)CCCNc1cc(COC(=O)NCCN2CCN(CC(=O)[O-])CCN(CC(=O)[O-])CCN(CC(=O)[O-])CC2)ccc1O[C@@H]1O[C@H](CO)[C@H](O)[C@H](O)[C@H]1O.[Gd+3]` [10b, Gadolinium(III)-1-(4-(2-(1-(4,7,10-triscarboxymethyl-(1,4,7,10tetraazacyclododecyl)))ethylcarbamoyloxymethyl)-2-((4-ethoxy-4-oxobutyl)amino)phenyl)-β-D-galactopyranose], the “Δr1 in MOPS” value ([1]; 10a-d, MOPS) was “largest”, the “Δr1 relative to the cleaved control product 11” value [1] was “positive” and the “change in MR contrast +/−β-gal” value (β-gal [3]; 7 T T1 solution phantoms) was “greatest change in MR contrast”. For the same molecule, the “T1 signal in the presence of β-gal compared with cleaved agent 11” value (“T1 signal … compared with cleaved agent 11” below) (β-gal [3]; 7 T solution phantoms) was “does not appear to fully activate”, the T1 (β-gal [3]; 7 T solution phantoms, assay buffer, 24 h, +β-gal 26.1 U/mL) was 378 ms and the “change in T1 over time (stability)” value [2] was “No significant change in T1”.

With `CCOC(=O)CCCCCNc1cc(COC(=O)NCCN2CCN(CC(=O)[O-])CCN(CC(=O)[O-])CCN(CC(=O)[O-])CC2)ccc1O[C@@H]1O[C@H](CO)[C@H](O)[C@H](O)[C@H]1O.[Gd+3]` [10c, Gadolinium(III)-1-(4-(2-(1-(4,7,10-triscarboxymethyl-(1,4,7,10tetraazacyclododecyl)))ethylcarbamoyloxymethyl)-2-((6-ethoxy-6-oxohexyl)amino)phenyl)-β-D-galactopyranose] the “q (buffer)” value [4] was 0.1, the “change in signal in the presence of CO3^2−” value ([1]; 10a-d, MOPS/CO3^2−) was “highest overall change in signal” and the “Δr1 relative to the cleaved control product 11” value [1] was 20%. The “T1 signal … compared with cleaved agent 11” value (β-gal [3]; 7 T solution phantoms) was “approximately the same”, the change in relaxivity (β-gal [3]; at both 1.4 and 7 T) was “positive” and the “change in T1 over time (stability)” value [2] was “No significant change in T1”. The “change in T1 over time (stability) in cell culture media” value [2] was “No significant change in T1”, the “MR signal enhancement in lacZ-expressing mice, 4 hrs post injection” value (β-gal enzyme (lacZ); [8]) was “signal enhancement was present but at a reduced level” and the “MR signal enhancement in non-transgenic control mice” value (β-gal enzyme (lacZ); [8]) was “No signal enhancement was observed”. The “MR signal enhancement in lacZ-expressing mice, 1 h post injection” value (“MR signal enhancement … 1 h post injection” below) (β-gal enzyme (lacZ); IP 200 microliters of 40 mM) was “Global signal enhancement was observed”, the “MR signal enhancement … 1 h post injection” value (β-gal enzyme (lacZ); IP 200 microliters of 40 mM, listed as complex 3) was “Global signal enhancement was observed” and the “MR signal enhancement … 1 h post injection” value (β-gal enzyme (lacZ); IP 200 microliters of 40 mM, listed as β-galactosidase responsive agent) was “Signal enhancement was noted in the liver and kidneys”. The “MR signal enhancement in non-transgenic control mice” value (β-gal enzyme (lacZ); IP 200 microliters of 40 mM, 9.4 T, listed as complex 3) was “No signal enhancement was observed”, the “MR signal enhancement in non-transgenic control mice” value (β-gal enzyme (lacZ); IP 200 microliters of 40 mM, 9.4 T, listed as β-galactosidase responsive agent) was “minimal” and the “time for MR signal to return to baseline” value (β-gal enzyme (lacZ); LacZ mice, IP injection) was no more than 24 h. The route of clearance (β-gal enzyme (lacZ); bladder very bright at 4 hour time point in one LacZ mouse) was “cleared renally” and the “change in relaxivity when exposed to β-gal (post enzyme cleavage)” value (β-gal [5]) was 90%.

For `CCOC(=O)CCCCCCCNc1cc(COC(=O)NCCN2CCN(CC(=O)[O-])CCN(CC(=O)[O-])CCN(CC(=O)[O-])CC2)ccc1O[C@@H]1O[C@H](CO)[C@H](O)[C@H](O)[C@H]1O.[Gd+3]` [10d, Gadolinium(III)-1-(4-(2-(1-(4,7,10-triscarboxymethyl-(1,4,7,10tetraazacyclododecyl)))ethylcarbamoyloxymethyl)-2-((8-ethoxy-8-oxooctyl)amino)phenyl)-β-D-galactopyranose], the “Δr1 relative to the cleaved control product 11” value [1] was “negative”, the “T1 signal … compared with cleaved agent 11” value (β-gal [3]; 7 T solution phantoms) was “approximately the same” and the “change in T1 over time (stability)” value [2] was “No significant change in T1”. For the same molecule, the “change in T1 over time (stability) in cell culture media” value [2] was “No significant change in T1”.

In the case of `CNC[C@H](O)[C@@H](O)[C@H](O)[C@H](O)CO.CNC[C@H](O)[C@@H](O)[C@H](O)[C@H](O)CO.O=C([O-])CN(CCN(CC(=O)[O-])CC(=O)O)CCN(CC(=O)[O-])CC(=O)O.[Gd+3]` [Magnevist, gadopentate dimeglumine], the volume of distribution ([6]; equal to the extracellular space) is listed as roughly 0.266 L/kg, the “binding to human serum protein” value ([6]; in vivo) is listed as “has not been shown to bind” and the distribution half-life [6, 9] is listed as 12 min. The elimination half-life [6, 9] was 96 min, the “dose excreted in the urine by 24 hours” value ([6]; intravenous) was 91% and the “dose excreted in the urine within 6 hours” value ([6]; intravenous) was roughly 83%. For the same molecule, the “link to nephrogenic systemic fibrosis (NSF)” value [7] was “associated with the onset of NSF”, the “dose shown to enhance after intrathecal contrast delivery” value ([7]; intrathecal) was 0.004 mmol/kg and the “safe dose in preclinical safety studies” value ([7]; intravenous delivery) was 50 × the normal dose.

For `CNC(=O)CN(CCN(CCN(CC(=O)[O-])CC(=O)NC)CC(=O)[O-])CC(=O)[O-].[Gd+3]` [Omniscan], the “link to nephrogenic systemic fibrosis (NSF)” value [7] is listed as “associated with the onset of NSF”.
